Results on three molecules are retold here after US9234186B2, “Star-worm luciferase” (OLYMPUS CORPORATION, priority 2011, dated 2016).

Like-named read-outs stand apart in the source and are kept apart here.

Test [1] deals with Diplocladon sp. 1 star-worm luciferase, wild type, SEQ ID NO: 1. Put plainly: Km determination for star-worm luciferase (luminescence kinetics). Particulars: 0.1 M Tris-HCl pH 8.0, 8 mM MgSO4. The test is classed as biochemical.
Procedure: The measurements were carried out ten times for each sample, and the average of absorbance was used for the calculation.
A solution of 0.1 M Tris-HCl (pH 8.0) containing each purified luciferase, 4 mM of ATP, and 8 mM of MgSO4 was connected to the standard pump of a luminometer, and measurement was carried out at the same time of adding 50 μl of the solution to the well. A Luminescensor (ATTO) was used for the measurement. Measurement was repeated three times for each luciferin concentration.
The peak intensity of the obtained photon count value was plotted with respect to luciferin concentration S, defining the initial rate as V. The plots were subjected to curve fitting of Michaelis Menten type, thereby giving Km values. The curve fitting was performed by a nonlinear least-squares method, and search of parameter was performed by a Newton method.
Measurement of Km Value with Respect to ATP
Under various ATP concentrations, the luminous intensity of the obtained luciferase was measured. Based on the results, Km values was determined with respect to ATP.
Various eight types of ATP solutions were prepared by adding ATP to 0.1 M Tris-HCl (pH 8.0). These solutions contain ATP at final concentration of 10, 20, 40, 80, 160, 320, 480, or 640 μM. These ATP solutions were each injected into a 96-well microplate at a volume of 50 μl. […]
Test [2] has as its system CBR luciferase derived from click beetle. Put plainly: Km determination for known luciferase CBR (luminescence kinetics). Particulars: 0.1 M Tris-HCl pH 8.0; enzyme solution with 1 mM D-luciferin, 8 mM MgSO4; read-out: Km for ATP. The test is classed as biochemical.
For the next test, the system named is HeLa cell. Kind of test: Luminous intensity expressed in HeLa cell, star-worm luciferase vs P. pyralis luciferase (Example 3). The test is classed as cell-based. The settings on record: 2 mM D-luciferin, 25° C., 90 minutes, normalised to sea pansy luciferase internal control, codon-optimized gene with Kozak sequence. As for the experimental part: The luminous intensities when expressed in a HeLa cell were compared between a star-worm luciferase and P. pyralis luciferase.
Regarding a star-worm luciferase, Kozak sequence was added to a nucleic acid optimized for expression in a mammalian cell and then inserted into between SgfI site and PmeI site of a multicloning site of pF9A CMV hRLuc neo Flexi vector (Promega). According to addition of Kozak sequence, an amino acid encoded by the codon immediately after initiation codon, proline, was changed to alanine. […] For the purpose of comparison, Kozak sequence was added to a known P. pyralis nucleic acid containing an optimized gene for expression in a mammalian cell, and then inserted into apF9A CMV hRLuc neo Flexi vector in a similar manner.
Each of the two types of plasmids obtained by the aforementioned manner was introduced into HeLa cells by means of lipofection method, and 24 hours later the cells were washed with PBS. […] According to the figure, the star-worm luciferase induced luminescence having 1.5 times the luminous intensity in a HeLa cell of that induced by P. Pyralis luciferase.

`O=C(O)[C@H]1CSC(c2nc3ccc(O)cc3s2)=N1` [D-luciferin]: the Michaelis constant (Km) in test [1] (read-out: Km for D-luciferin, enzyme solution with 4 mM ATP) was determined as 38.9 µM.

Turning to `Nc1ncnc2c1ncn2[C@@H]1O[C@H](COP(=O)(O)OP(=O)(O)OP(=O)(O)O)[C@@H](O)[C@H]1O` [ATP, Adenosine triphosphate], the Km in test [1] (enzyme solution with 1 mM D-luciferin, read-out: Km for ATP) was determined as 110 µM; in test [2], 47 µM.

B1: star-worm luciferase: Novel luciferase cloned from star-worm Diplocladon sp. 1, amino acid sequence SEQ ID NO: 1 (protein, listed as Diplocladon sp.)
chain: MPNEIVLHGAKPRDPLDLGTAGSQLFRSLTQFSYLREALVDAHTEQVVSYADILENSCRLAICFEKYGLRQNSVIAVCSENSAIFFYPVIAALYMGIITATVNDNYTERELFDTLNISKPELVFCSKKAIKNLTQLKNHIDFIKKLVVLDSDEDIGEVESLANFMKRYSESVIDVRNFKPRDFDAKEQVALIMSSSGTTGLPKGVVLTHRNLSVRFVHCKDPLFGTRTVPSTSILSIVPFHHAFGMFTTLSYFIVGLRVILLKRFEEEFFLSTIEKYRIPTIVLAPPVMVFLAKSPLVDQYDVSSIREVATGGAPVGIEVAEAVAKRLKINGILQGYGLTETCCAVLITPHDHVKTGSTGKVAPYVQAKVVDLSTGKSLGPNKRGELCFKSEIIMKGYFNNIKATEEAIDKEGWLHSGDVGYYDEDGHFYVVDRLKELIKYKGYQVAPAELEWLLLQHPAIKDAGVTGVPDEAAGELPGACIVLEEGHSLTEQEVIEYVAERVSPTKRIRGGVVFVDDIPKGATGKLVRSELRRMLSQKKSKL
Turning to B1, the “luminous intensity relative to that induced by P. pyralis firefly luciferase” value in the test on HeLa cell is on record as 1.5 times.

One may read the Km as the concentration of substrate that gives half-maximal velocity.
